How the values were obtained:
MAO-A = target: T1, MAO-A (Homo sapiens, UniProt P21397); assay: MAO-A inhibition, kynuramine method; type: biochemical; conditions: at the concentration of 10.0 μM; n.a. = no active, percent inhibition <5.0%; read-out: %Inhibition MAO-A
T1 sequence (P21397 1-527): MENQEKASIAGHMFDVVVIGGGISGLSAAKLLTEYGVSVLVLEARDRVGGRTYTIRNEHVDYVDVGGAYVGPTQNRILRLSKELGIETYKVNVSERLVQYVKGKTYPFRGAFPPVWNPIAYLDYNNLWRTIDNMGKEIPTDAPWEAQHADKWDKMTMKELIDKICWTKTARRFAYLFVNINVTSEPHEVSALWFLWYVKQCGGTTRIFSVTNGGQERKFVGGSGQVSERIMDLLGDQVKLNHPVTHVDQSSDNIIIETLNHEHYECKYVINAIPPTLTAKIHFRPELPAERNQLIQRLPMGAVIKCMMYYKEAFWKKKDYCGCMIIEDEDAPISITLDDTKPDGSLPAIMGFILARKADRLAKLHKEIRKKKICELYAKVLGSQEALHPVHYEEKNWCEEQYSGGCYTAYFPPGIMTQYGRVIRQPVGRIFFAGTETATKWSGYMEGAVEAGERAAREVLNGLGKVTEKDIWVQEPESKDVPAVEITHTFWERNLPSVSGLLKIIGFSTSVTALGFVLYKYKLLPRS

MAO-B = target: T2, MAO-B (Homo sapiens, UniProt P27338); assay: Reversibility study of MAO-B inhibition by dialysis method; type: biochemical
T2 sequence (P27338 1-520): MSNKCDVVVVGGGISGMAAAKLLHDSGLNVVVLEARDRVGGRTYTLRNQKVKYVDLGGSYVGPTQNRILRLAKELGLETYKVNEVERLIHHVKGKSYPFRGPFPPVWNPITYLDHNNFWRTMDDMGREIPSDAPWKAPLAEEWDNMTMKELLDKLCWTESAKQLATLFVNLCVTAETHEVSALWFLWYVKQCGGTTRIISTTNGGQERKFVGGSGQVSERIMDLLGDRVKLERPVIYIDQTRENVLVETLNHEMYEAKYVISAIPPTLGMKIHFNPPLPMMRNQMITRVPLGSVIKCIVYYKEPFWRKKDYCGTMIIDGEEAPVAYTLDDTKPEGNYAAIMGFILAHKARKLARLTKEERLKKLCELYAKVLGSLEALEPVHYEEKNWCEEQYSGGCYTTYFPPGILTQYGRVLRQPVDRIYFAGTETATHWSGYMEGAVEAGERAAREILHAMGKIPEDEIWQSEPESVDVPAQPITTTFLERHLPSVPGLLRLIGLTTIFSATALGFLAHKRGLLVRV

[1] = Metal-chelating study by UV spectra; type: physicochemical; conditions: 75.0 μM in methanol; shifted from 335.5 nm
Procedure: Particularly, after the addition of FeSO4, maximum increase in absorption was detected. Besides, after the addition of CuCl2, maximum absorption peak shifted from 335.5 to 382.0 nm.
UV spectrum method was conducted to clarify the metal chelating ability of 2-(4-(benzyloxy)-5-(hydroxyl) phenyl) benzothiazole derivatives. Test compound solution (1.0 ml, 75 µM in methanol) and metal ion solution (1.0 ml, 75 µM in methanol) were added to a vial. The vial was placed at room temperature for 2 h. Then, the mixture was removed from the vial to a quartz cell. After transfer, the absorbance of the mixture at 200–800 nm was measured by using UV spectrophotometer (Shimadzu UV-1900i).

[2] = system: NO release in LPS-activated BV-2 microglia cells; assay: LPS-induced NO release in BV-2 cells (Griess method); type: cell-based; conditions: Mus musculus, LPS 1.0 µg/mL, read-out: inhibitory rate of LPS-induced NO release
Procedure: Then, Griess method was performed to measure the inhibitory effect of 3h on LPS-induced NO release in BV-2 cells. […] It reflected that LPS could induce the activation of BV-2 cells and induce neuroinflammation.
(§1) ELISA and Griess reaction methods were performed to detect the inhibitory effect of 3h on the release of TNF-α and NO in LPS-stimulated BV-2 cells[46]^,[47]. BV-2 cells in the logarithmic phase were seeded into 96-well cell culture plate, and these cells were incubated at 37 °C for 24 h at the atmosphere of 5% CO2. After incubation, the culture solution was replaced by fresh one (90 µL without serum), and test compound solution (10 µL) was added. After addition, the plate was incubated for 30 min, then LPS (10 µL, 1.0 µg/ml in PBS) was added to each well, and the mixture would be incubated for another 24 h at 37 °C. After the final incubation, the supernatants were taken out to measure the level of TNF-α and NO according to the procedures depicted on the kits (kits were purchased from Nanjing Jiancheng Bioengineering Institute).

[3] = system: TNF-α production in LPS-activated BV-2 microglia cells; assay: LPS-induced TNF-α production in BV-2 cells (ELISA); type: cell-based; conditions: Mus musculus, LPS 1.0 µg/mL, read-out: inhibition rate of LPS-induced TNF-α production
Procedure: ELISA method was carried out to detect the inhibitory effects of 3h on LPS-induced TNF-α production. As shown in Figure 8(B), the level of TNF-α expression was dramatically raised when BV-2 cells were exposed to LPS (1.0 µg/mL).
as §1

[4] = system: ROS release in LPS-treated BV-2 cells; assay: LPS-induced ROS release in BV-2 cells (DCFH-DA probe); type: cell-based; conditions: Mus musculus, LPS 1.0 µg/mL, read-out: inhibition rate of LPS-induced ROS release
Procedure: The inhibitory effect of 3h on LPS-induced ROS release in BV-2 cells in vitro was detected by using 2′,7′-dichlorofluorescein diacetate (DCFH-DA) as probe to quantify the ROS level in LPS-treated BV-2 cells. Noticeably, the fluorescence intensity of control group was relatively low, indicating low level of ROS. […] The fluorescence values were further detected by using microplate reader (Figure 9(B)), and then the inhibition rates were calculated. […] BV-2 cells were incubated with test compound solution (10 µL) for 30 min, then LPS (10 µL, 1.0 µg/ml in PBS) was added to each well, and each well would be incubated for another 30 min at 37 °C. […] The fluorescence was measured with excitation and emission wavelengths at 488 and 525 nm on an inverted fluorescence microscope.

inhibition at 10 µM (MAO-A): 39.7 ± 0.54%
MAO-B catalytic activity, undialysis group (MAO-B; test compound 4 × IC50, 4 °C for 24 h without dialysis): 27.6%
MAO-B catalytic activity, dialysis group (MAO-B; test compound 4 × IC50, dialysis 24 h): 80.9%
maximum absorption peak after the addition of CuCl2 [1]: 382.0 nm
SMILES: Oc1cc(OCc2ccc(F)cc2)ccc1-c1nc2ccccc2s1 [3h, 2-(Benzo[d]thiazol-2-yl)-5-((4-fluorobenzyl)oxy)phenol]
MAO-B inhibitory mode (MAO-B; classified by MAO-B catalytic activity in dialysis group): reversible (reversible inhibition: MAO-B catalytic activity ≥ 80%)
inhibition at 0.5 µM ([2]; 0.5 µM): 15.8%
inhibition at […] ([2]; 2.5 µM): 35.8%
inhibition at 10 µM ([2]; 10.0 µM): 63.7%
inhibition at 0.5 µM ([3]; 0.5 µM): 7.8%
inhibition at […] ([3]; 2.5 µM): 25.7%
inhibition at 10 µM ([3]; 10.0 µM): 52.5%
inhibition at […] ([4]; 2.5 µM): 19.8%
inhibition at 10 µM ([4]; 10.0 µM): 78%

Reference: paper PMC9897792, “Discovery of novel 2-(4-(benzyloxy)-5-(hydroxyl) phenyl) benzothiazole derivatives as multifunctional MAO-B inhibitors for the treatment of Parkinson’s disease” (Journal of Enzyme Inhibition and Medicinal Chemistry, 2023)
